The values that follow come from patent US20110182916A1, “Use of Agonists of Integrin Alpha 5 for Inducing the Osteogenic Differentiation of Mesenchymal Stem Cells” (priority 2008, published 2011).

The subject of one test is LV-ITGA5-infected hMSCs. The class given is cell-based, human.
The next test relates to hMSCs. Description: Osteoblast marker mRNA (Runx2, ALP, Col1A1) by quantitative RT-PCR. The class given is cell-based. To be noted: CRRETAWAC 100 μg/ml, 24 h, human MSCs. On the procedure:
The expression of mRNA markers of the osteoblast lineage (Runx2, ALP, type 1 collagen) was evaluated by quantitative RT-PCR. Total RNAs were isolated using Trizol reagent (Laboratoires Eurobio, France) according to the manufacturer's instructions. Three μg of total RNA from each sample were reverse transcribed using MMLV reverse transcriptase and oligodT primers, at 37° C. for 90 min. The relative mRNA levels were evaluated by quantitative PCR using LightCycler Instrument (Roche Applied Science, Indianapolis Ind., USA) and SYBR Green PCR kit (ABGen, Courtabceuf, France). Triplicate reactions were carried out for each sample. Signal was normalized to 18S as internal control.

A further test has as its system clonal F/STRO1+A cells. In words: ALP activity by staining in clonal cells. It is filed as cell-based, human. To be noted: coating with 100 μg/ml CRRETAWAC
An excerpt:
F/STRO1^+A cells were derived from human fetal bone marrow stroma, selected for Stro1 antigen expression, immortalized using the large T SV40 and subsequently subcloned (OYAJOBI et al., J Bone Miner Res, 14, 351-61, 1999). This clonal human bone marrow stromal cell line express mRNA markers or protein of the osteoblast lineage (Runx2, OC, ALP, type 1 collagen), of the chondrocyte lineage (aggrecan, types 2, 9 and 10 collagen), and of the adipocyte lineage (PPARgamma2, C/EBPalpha, aP2, G3PDH, LPL, leptin) under basal conditions (AHDJOUDJ et al., J Cell Biochem, 81, 23-38, 2001).
The activity of alkaline phosphatase, an early marker of osteoblast differentiation, was determined by a colorimetric assay as previously described (FROMIGUE et al., J Cell Biochem, 104, 620-8, 2008). ALP staining was performed using Sigma FAST kit according to the manufacturer's recommendations (Sigma). Cells were fixed in 75% ethanol, rinsed in PBS and incubated with the substrate buffer at 37° C.
Legend: The synthetic cyclic peptide CRRETAWAC promotes osteoblast marker genes expression in hMSCs. A) Human MSCs were treated with CRRETAWAC at the dose of 100 μg/ml for 24 h, RNAs were collected and osteoblast markers were determined by qRT-PCR analysis. Results, after correction to 18S content, are expressed as mean±SD of treated over control ratio. […] Infection with LV-ITGA5 is shown for comparison.

The test system of a further test is ITGA5 in hMSCs. In words: ITGA5 protein level by Western blot. The class given is cell-based, human. To be noted: dexamethasone 10^-7 M. On the procedure:
For Western blot analysis, cells lysates were prepared as previously described (FROMIGUE et al. Cell Death Differ. 13, 1845-56, 2006). Briefly, proteins (30 μg) were resolved on 4-12% SDS-PAGE and electrotransfered onto […] membranes (Millipore Corporation, Bedford, USA). Filters were incubated at RT for 2 h in 50 mM Tris/HCl (pH 7.4), 150 mM NaCl, 0.1% (v/v) Tween-20, 0.5% (w/v) bovine serum albumin (TBST/BSA), then overnight at 4° C. on a shaker with specific primary antibodies diluted at 1/1000 in TBST/BSA: monoclonal antibody against the housekeeping gene GAPDH (Abeam Cambridge, UK), and rabbit polyclonal antibody directed against ITGA5 was Santa Cruz Biotechnology (Santa Cruz, Calif., USA). Membranes were washed twice with TBST and incubated for 2 hours with appropriate HRP-conjugated secondary antibody (1/20,000 in TBST/BSA). After final washes, the signals were visualized with enhanced chemiluminescence western blotting detection reagent (ECL, Amersham Biosciences, Piscataway, N.J., USA) and autoradiographic film (X-OMAT-AR, Eastman Kodak Company, Rochester, N.Y., USA). Densitometric analysis using ImageQuant software was performed following digital scanning (Agfa).
Background: Immunoblotting shows a protein as a band on a membrane.

For a further test, the system named is ITGA5 in primary hMSCs. In words: ITGA5 mRNA expression by quantitative RT-PCR. Conditions: dexamethasone 10^-7 M, day 1 and 3, primary hMSCs. It is filed as cell-based, human.

Where no end group is shown, it is not given here.

Protocol for LV-ITGA5-infected hMSCs: To this goal, proteins collected from hMSCs infected with LV-ITGA5 were analysed by western blot analysis.
Legend: Osteoblast differentiation by ITGA5 involves ERK1/2 signalling.

Regarding `N#CC(=C(/N)Sc1ccccc1N)/C(C#N)=C(\N)Sc1ccccc1N` [U0126], in the test on LV-ITGA5-infected hMSCs, the “increased expression of ALP induced by ITGA5 overexpression” value is reported as “blunted”, the “increased expression of Col1A1 induced by ITGA5 overexpression” value is on record as “blunted” and the “increased expression of Runx2 induced by ITGA5 overexpression” value was “blunted”.
With CRRETAWAC (also: cyclic), in the test with hMSCs, the “expression of osteoblast markers (mRNA)” value is “greatly increased”. In addition, the “ALP activity (staining)” value in the test on clonal F/STRO1+A cells is recorded as “increased”.
As for `C[C@@H]1C[C@H]2[C@@H]3CCC4=CC(=O)C=C[C@]4(C)[C@@]3(F)[C@@H](O)C[C@]2(C)[C@@]1(O)C(=O)CO` [dexamethasone], the “increase of ITGA5 protein levels, treated over control” value with ITGA5 in hMSCs was “about 1.5 fold”. For the same compound, the “increase of ITGA5 expression (mRNA), treated over control” value in the test with ITGA5 in primary hMSCs is listed as 2-3 fold.
